Measured values as given in ChEMBL document CHEMBL1201862, “PubChem BioAssay data set” (2004).
Active and inactive are the calls of the source.

Key:
[1] = biological target: T1, Heat shock factor protein 1 (Mus musculus, UniProt P38532); experiment: enhancement of HSF1-driven luciferase signal – cell-based, NIH3T3, luminescence, dose retest, confirmation (AID 435004); type: functional;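 note: stress induced by proteasome inhibitor MG132 added 30 min after compound; luciferase reporter driven by HSF1 response element in NIH3T3 cells; actives raise luminescence as potentiators of the MG132 stress response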
T1 sequence (P38532 whole entry): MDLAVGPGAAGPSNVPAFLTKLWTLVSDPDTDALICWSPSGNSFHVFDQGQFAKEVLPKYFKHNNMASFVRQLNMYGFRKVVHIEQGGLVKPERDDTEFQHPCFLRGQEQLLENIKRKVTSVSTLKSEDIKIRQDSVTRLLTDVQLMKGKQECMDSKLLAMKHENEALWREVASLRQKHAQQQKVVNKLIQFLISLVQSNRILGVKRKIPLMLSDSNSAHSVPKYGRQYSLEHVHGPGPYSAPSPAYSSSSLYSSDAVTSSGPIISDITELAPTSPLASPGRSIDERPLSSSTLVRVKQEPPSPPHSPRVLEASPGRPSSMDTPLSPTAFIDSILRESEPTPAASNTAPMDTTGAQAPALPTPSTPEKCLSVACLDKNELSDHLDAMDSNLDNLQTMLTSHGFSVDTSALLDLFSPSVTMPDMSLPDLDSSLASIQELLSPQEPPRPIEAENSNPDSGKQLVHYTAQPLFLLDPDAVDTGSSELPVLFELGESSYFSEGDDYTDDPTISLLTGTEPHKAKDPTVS

[2] = biological target: T2, DNA dC->dU-editing enzyme APOBEC-3G (Homo sapiens, UniProt Q9HC16); experiment: Dose Response confirmation of small molecule APOBEC3G DNA Deaminase Inhibitors via a fluorescence-based single-stranded DNA deaminase assay. [Related pubchem assays (depositor defined):AID493012, AID493028]; type: functional
T2 sequence (Q9HC16 whole entry): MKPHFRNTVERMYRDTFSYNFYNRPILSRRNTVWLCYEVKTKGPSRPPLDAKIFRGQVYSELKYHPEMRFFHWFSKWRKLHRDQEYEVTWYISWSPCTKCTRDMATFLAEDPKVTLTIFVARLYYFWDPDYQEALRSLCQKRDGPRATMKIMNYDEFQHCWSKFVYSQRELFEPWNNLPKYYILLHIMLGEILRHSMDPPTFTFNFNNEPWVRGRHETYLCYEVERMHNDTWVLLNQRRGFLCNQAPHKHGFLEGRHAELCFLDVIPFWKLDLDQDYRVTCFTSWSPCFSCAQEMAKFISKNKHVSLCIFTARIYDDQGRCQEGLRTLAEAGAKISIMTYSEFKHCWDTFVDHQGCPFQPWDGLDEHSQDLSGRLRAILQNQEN

[3] = biological target: Glucose-6-phosphate 1-dehydrogenase (Homo sapiens, UniProt P11413); experiment: inhibition of Homo sapiens G6PD, dose series – biochemical, fluorescence, selectivity assay for P. falciparum G6PD inhibitor project, dose response (AID 504792); type: functional
Sequence of Glucose-6-phosphate 1-dehydrogenase (P11413 whole entry): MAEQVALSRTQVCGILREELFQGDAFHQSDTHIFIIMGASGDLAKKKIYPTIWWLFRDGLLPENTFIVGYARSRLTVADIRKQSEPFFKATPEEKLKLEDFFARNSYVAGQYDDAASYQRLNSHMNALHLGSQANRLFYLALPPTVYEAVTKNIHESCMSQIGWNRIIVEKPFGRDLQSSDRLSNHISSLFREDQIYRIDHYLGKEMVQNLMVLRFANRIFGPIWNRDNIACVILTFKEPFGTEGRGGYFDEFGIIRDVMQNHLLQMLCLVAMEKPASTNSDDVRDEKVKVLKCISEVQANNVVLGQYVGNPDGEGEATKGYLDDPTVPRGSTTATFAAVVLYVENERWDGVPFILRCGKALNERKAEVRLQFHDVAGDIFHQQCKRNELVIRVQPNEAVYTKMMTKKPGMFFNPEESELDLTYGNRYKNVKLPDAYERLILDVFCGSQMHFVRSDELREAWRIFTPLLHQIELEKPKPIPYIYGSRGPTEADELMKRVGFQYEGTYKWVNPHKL

[4] = biological target: T3, DNA dC->dU-editing enzyme APOBEC-3A (Homo sapiens, UniProt P31941); experiment: A3A deaminase inhibition for selectivity – biochemical, dose response (AID 504722); type: functional
T3 sequence (P31941 whole entry): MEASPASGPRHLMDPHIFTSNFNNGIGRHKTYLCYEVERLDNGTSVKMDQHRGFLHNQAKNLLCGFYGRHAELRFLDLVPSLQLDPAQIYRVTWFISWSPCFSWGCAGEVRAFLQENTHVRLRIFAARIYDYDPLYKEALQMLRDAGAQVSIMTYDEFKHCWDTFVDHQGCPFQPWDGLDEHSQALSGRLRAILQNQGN

[5] = biological target: Induced myeloid leukemia cell differentiation protein Mcl-1 (Homo sapiens, UniProt Q07820); type: functional
[6] = biological target: T4, Voltage-gated N-type calcium channel alpha-1B subunit/Amyloid beta A4 precursor protein-binding family A member 1 (Homo sapiens, UniProt Q00975+Q02410); type: protein assay
T4 sequence (Q00975 whole entry): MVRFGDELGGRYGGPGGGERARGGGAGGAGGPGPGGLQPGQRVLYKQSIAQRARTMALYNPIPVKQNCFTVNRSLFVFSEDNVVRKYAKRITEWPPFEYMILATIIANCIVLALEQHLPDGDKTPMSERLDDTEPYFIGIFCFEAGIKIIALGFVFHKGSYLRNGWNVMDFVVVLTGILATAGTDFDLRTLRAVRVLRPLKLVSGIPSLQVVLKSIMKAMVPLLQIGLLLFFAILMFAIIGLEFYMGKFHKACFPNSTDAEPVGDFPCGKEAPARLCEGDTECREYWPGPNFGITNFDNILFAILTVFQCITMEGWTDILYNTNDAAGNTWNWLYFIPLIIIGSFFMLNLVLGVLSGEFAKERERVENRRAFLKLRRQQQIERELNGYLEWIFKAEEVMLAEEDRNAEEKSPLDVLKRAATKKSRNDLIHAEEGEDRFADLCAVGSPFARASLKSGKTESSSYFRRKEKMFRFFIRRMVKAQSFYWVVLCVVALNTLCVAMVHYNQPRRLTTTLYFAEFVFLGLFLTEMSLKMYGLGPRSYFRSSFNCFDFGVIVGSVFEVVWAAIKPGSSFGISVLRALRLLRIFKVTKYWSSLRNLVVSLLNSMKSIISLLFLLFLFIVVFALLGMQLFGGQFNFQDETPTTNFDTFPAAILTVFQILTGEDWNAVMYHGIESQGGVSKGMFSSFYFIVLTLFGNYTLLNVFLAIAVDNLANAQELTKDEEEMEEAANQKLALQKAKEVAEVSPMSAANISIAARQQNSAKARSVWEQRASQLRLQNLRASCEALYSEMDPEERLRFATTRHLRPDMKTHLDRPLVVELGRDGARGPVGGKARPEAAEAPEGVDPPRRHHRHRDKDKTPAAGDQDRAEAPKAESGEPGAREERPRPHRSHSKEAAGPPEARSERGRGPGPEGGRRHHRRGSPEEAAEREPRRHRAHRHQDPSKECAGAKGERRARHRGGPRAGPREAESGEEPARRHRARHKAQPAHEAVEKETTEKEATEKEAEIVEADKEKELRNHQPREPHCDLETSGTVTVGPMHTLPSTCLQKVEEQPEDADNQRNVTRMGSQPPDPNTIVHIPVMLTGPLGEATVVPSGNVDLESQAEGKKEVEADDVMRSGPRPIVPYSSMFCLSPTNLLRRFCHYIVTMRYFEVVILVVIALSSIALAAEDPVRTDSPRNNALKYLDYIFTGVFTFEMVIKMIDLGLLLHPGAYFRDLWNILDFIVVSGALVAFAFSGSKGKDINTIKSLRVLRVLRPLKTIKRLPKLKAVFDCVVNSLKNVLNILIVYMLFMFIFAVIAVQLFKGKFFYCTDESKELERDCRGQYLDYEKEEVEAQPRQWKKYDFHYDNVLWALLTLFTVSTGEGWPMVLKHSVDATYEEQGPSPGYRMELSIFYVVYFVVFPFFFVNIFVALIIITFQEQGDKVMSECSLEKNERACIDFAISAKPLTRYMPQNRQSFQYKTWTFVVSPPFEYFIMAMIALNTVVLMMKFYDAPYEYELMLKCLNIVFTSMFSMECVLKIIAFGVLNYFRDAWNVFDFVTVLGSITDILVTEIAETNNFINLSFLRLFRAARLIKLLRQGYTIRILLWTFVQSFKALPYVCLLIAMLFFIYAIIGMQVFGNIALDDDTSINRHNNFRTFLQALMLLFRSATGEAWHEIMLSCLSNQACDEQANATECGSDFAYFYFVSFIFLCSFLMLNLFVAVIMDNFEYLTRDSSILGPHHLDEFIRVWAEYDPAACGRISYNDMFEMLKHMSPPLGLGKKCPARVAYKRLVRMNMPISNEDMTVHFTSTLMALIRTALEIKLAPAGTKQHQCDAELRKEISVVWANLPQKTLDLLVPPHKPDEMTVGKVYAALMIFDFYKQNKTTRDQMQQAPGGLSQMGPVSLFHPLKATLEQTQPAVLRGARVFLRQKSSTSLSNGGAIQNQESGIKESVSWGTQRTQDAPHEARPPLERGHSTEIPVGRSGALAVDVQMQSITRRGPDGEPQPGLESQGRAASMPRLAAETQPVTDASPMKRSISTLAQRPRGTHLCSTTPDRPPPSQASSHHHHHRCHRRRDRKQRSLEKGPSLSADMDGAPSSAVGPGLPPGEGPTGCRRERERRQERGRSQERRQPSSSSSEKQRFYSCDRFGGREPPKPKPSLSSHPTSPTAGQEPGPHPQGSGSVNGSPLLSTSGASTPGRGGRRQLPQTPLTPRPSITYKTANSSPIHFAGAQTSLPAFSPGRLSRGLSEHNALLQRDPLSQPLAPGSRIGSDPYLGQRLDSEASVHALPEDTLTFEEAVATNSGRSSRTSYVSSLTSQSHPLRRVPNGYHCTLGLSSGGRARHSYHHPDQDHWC
T4 sequence (Q02410 whole entry): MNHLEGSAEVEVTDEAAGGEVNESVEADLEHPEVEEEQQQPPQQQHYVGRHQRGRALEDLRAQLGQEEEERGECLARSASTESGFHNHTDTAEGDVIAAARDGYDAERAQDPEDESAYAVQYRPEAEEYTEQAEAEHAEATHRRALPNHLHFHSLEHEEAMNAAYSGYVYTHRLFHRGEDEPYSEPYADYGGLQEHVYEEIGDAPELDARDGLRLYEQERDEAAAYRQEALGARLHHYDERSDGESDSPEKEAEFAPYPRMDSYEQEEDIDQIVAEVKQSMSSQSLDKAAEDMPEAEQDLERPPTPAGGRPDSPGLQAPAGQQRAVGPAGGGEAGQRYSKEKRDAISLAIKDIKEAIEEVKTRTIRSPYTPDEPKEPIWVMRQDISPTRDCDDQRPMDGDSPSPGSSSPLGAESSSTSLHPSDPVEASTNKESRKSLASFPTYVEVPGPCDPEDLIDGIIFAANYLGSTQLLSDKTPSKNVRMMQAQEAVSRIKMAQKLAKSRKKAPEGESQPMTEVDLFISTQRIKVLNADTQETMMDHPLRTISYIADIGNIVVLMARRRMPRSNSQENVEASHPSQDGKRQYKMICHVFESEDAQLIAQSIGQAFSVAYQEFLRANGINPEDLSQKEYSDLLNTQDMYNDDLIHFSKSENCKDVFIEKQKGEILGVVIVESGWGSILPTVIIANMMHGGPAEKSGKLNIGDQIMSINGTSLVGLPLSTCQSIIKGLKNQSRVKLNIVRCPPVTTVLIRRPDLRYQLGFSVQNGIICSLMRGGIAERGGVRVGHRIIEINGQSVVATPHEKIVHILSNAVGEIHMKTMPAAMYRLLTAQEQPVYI

Large T antigen = Large T antigen (Simian virus 40, UniProt P03070); type: functional, Betapolyomavirus macacae;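 note: Confirmatory-stage PubChem screen for compounds that inhibit SV40 T antigen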
[7] = biological target: T4, Voltage-gated N-type calcium channel alpha-1B subunit/Amyloid beta A4 precursor protein-binding family A member 1; type: protein assay; remark: listed apart in the source
[8] = THP-1 cell cytotoxicity, dose response, cytotoxicity control for non-replicating M. tuberculosis project (AID 489025); type: functional
[9] = biological target: T5, Alkaline phosphatase, tissue-nonspecific isozyme (Homo sapiens, UniProt P05186); experiment: activation of tissue-nonspecific alkaline phosphatase – biochemical, TNAP isozyme, human IAP uHTS hits, selectivity assay for human IAP activator project, dose response (AID 488886); type: functional;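 note: potency of compounds raising TNAP activity as a selectivity check on IAP activators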
T5 sequence (P05186 whole entry): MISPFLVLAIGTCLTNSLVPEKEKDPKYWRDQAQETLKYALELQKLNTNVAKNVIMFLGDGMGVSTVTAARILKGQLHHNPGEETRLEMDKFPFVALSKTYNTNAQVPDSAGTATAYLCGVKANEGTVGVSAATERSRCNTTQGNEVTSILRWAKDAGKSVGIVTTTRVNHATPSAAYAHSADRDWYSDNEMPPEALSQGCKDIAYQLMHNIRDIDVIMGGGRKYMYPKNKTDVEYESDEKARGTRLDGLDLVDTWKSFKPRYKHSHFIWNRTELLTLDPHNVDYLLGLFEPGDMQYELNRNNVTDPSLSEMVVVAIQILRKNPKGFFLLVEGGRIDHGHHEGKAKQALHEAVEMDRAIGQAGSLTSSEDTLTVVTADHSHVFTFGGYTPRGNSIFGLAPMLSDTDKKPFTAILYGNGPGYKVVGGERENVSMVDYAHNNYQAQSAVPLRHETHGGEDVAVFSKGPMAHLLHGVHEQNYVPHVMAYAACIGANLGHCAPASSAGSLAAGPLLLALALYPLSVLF

Streptococcus = experiment: GAS UMAA2166 growth inhibition – luminescence, BacTiterGlo, counter-screen for streptokinase expression inhibitor project, dose response (AID 1915); type: functional, organism-based;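 note: potency for reduction of bacterial viability or growth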
Streptokinase A = biological target: T6, Streptokinase A (Streptococcus pyogenes serotype M1, UniProt P10520); experiment: viability-normalized secreted streptokinase activity reduction – plasminogen activation absorbance, OD405, dose response (AID 1914); type: functional, Streptococcus pyogenes M1 GAS;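 note: secreted streptokinase activity via plasminogen activation per viability signal from cell pellet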
T6 sequence (P10520 whole entry): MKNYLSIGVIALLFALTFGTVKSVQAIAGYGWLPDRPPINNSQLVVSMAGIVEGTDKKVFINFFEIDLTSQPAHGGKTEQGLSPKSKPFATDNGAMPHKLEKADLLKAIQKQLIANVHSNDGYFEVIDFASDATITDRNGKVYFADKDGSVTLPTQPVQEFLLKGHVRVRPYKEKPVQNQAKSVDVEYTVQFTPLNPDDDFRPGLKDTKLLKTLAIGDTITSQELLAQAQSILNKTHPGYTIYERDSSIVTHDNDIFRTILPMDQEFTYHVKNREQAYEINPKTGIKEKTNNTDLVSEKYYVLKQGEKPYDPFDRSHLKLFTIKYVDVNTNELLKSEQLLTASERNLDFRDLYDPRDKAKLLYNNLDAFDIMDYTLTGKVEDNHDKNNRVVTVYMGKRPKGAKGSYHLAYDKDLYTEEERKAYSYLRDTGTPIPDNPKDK

[10] = biological target: T7, Intestinal-type alkaline phosphatase (Homo sapiens, UniProt P09923); experiment: human intestinal alkaline phosphatase activators, dose response, biochemical, luminescence, uHTS hits (AID 463120); type: functional
T7 sequence (P09923 whole entry): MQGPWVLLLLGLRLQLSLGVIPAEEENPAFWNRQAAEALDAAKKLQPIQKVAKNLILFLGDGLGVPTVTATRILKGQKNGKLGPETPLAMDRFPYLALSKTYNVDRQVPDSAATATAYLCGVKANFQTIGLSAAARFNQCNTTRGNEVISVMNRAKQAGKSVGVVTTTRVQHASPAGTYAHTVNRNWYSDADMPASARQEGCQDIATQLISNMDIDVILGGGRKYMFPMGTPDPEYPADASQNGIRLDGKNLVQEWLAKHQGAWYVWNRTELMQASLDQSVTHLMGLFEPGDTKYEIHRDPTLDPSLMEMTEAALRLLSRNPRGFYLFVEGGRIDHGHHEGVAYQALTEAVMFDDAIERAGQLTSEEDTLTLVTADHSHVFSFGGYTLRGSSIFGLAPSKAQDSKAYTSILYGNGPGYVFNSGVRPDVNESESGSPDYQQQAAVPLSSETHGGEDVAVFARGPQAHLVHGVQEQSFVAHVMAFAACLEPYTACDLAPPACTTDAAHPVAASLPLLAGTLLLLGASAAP

[11] = biological target: Intestinal-type alkaline phosphatase (Mus musculus, UniProt P24822); experiment: PubChem AID 488874; type: functional
[12] = biological target: T7, Intestinal-type alkaline phosphatase; experiment: activation of human intestinal alkaline phosphatase – biochemical, luminescent, uHTS hits, set 2, dose response (AID 488817); type: functional;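 note: potency of activators that raise enzyme activity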
[13] = tested on: Streptococcus sp. 'group A'; experiment: Streptococcus pyogenes SK(-)GAS viability under kanamycin – luminescence, BacTiterGlo, confirmation, counter-screen for streptokinase expression inhibitor project, dose response (AID 1900); type: functional, organism-based
HEK293 [14] = experiment: cells; conditions: Homo sapiens
HEK293 [15] = experiment: cells; type: functional, cell-based; conditions: Homo sapiens
HEK293 [16] = experiment: NOD2 signaling inhibitors in MDP-stimulated cells, cell-based, uHTS, luminescence (AID 2001); type: functional; conditions: Homo sapiens
HEK293 [17] = experiment: inhibition of NOD1-driven NF-kB reporter – cell-based, luminescence, uHTS, primary screen (AID 1578); type: functional; conditions: Homo sapiens
HEK293 [18] = experiment: cells; type: functional, cell-based; conditions: Homo sapiens; remark: listed apart in the source
HEK293 [19] = experiment: cells; conditions: Homo sapiens; remark: listed apart in the source
[20] = biological target: T2, DNA dC->dU-editing enzyme APOBEC-3G; type: functional
[21] = biological target: T3, DNA dC->dU-editing enzyme APOBEC-3A; experiment: Dose Response confirmation of small molecule APOBEC3A DNA Deaminase Inhibitors via a fluorescence-based single-stranded DNA deaminase assay. [Related pubchem assays (depositor defined):AID493011, AID493024]; type: functional
[22] = biological target: Polyadenylate-binding protein 1 (Homo sapiens, UniProt P11940); experiment: blockers of PABP interaction with poly(A) – biochemical, fluorescence polarization, […] (AID 2014)
[23] = biological target: Eukaryotic translation initiation factor 4H (Homo sapiens, UniProt Q15056); experiment: eIF4H binding inhibition – biochemical, uHTS, fluorescence polarization, translation initiation inhibitor project, primary screen (AID 2012)
[24] = HIV-1 AD8 envelope cell-cell fusion blockers – cherry-pick, dose response (AID 652062); type: functional, cell-based;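 note: luciferase signal from cell-cell fusion driven by HIV-1 clade B AD8 Env; potency is for inhibitors of fusion seen as a drop in luminescence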
[25] = viability of HCT116 lacking mutant beta-catenin – cell-based, human colon tumor, dose response (AID 1045); type: functional;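 note: HCT116 colon tumor cells with beta catenin knocked out; cells exposed to compound for 60 hours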
[26] = blockers of HIV-1 ZM109 envelope-driven cell-cell fusion – HeLa effector, CEM target cells, luciferase, cherry-pick, dose response (AID 652058); type: functional, cell-based;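 note: luciferase signal from HIV-1 Env mediated cell-cell fusion of effector and target cells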
INS1 = experiment: INS-1E survival protection against cytokine death – cell-based, luminescence, retest, dose response (AID 449756); type: functional; conditions: Rattus norvegicus;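 note: cell death triggered by IL-1 beta plus TNF-alpha plus IFN-gamma mixture; protective hits raise ATP signal compared with cytokine alone wells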
[27] = microbe, parasite or virus in culture; type: functional; conditions: Mycobacterium tuberculosis
[28] = MIN6 cell viability loss – mouse insulinoma, cytotoxicity control, dose response (AID 2122); type: functional;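 note: confirmatory high-throughput counterscreen run to flag cytotoxic compounds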
[29] = decrease of insulin promoter-GFP reporter – imaging, high-content screening, mouse beta cells (AID 1628); type: functional; conditions: MIN6
[30] = viability of PTEN-deleted HCT116 cells – cell-based, HCT116 PTEN knockout, dose response (AID 1047); type: functional;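 note: HCT116 colon tumor cells with PTEN knocked out; cells exposed to compound for 60 hours before readout; potency for loss of cell viability measured by luminescence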
Cytochrome P450 3A4 = Cytochrome P450 3A4 (Homo sapiens, UniProt P08684);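 note: CYP3A4 tested as one member of a cytochrome P450 panel screen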
[31] = blockers of HIV-1 envelope-mediated cell-cell fusion – cherry-pick, dose response (AID 652057); type: functional, cell-based
[32] = off-target signal loss in HeLa-CEM21 co-culture – HeLa F-luc CTL cells, cherry-picked, counter-screen for HIV-1 Env fusion inhibitor project, dose response (AID 652040); type: functional, cell-based;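 note: potency for signal decrease marking cytotoxic or nonspecific inhibition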
[33] = biological target: T8, Rac GTPase-activating protein 1 (Homo sapiens, UniProt Q9H0H5); experiment: blockers of MgcRacGAP-driven Rac1 GTP hydrolysis – biochemical, ADP Hunter fluorescence, primary and confirmatory, confirmation (AID 624330); type: functional
T8 sequence (Q9H0H5 whole entry): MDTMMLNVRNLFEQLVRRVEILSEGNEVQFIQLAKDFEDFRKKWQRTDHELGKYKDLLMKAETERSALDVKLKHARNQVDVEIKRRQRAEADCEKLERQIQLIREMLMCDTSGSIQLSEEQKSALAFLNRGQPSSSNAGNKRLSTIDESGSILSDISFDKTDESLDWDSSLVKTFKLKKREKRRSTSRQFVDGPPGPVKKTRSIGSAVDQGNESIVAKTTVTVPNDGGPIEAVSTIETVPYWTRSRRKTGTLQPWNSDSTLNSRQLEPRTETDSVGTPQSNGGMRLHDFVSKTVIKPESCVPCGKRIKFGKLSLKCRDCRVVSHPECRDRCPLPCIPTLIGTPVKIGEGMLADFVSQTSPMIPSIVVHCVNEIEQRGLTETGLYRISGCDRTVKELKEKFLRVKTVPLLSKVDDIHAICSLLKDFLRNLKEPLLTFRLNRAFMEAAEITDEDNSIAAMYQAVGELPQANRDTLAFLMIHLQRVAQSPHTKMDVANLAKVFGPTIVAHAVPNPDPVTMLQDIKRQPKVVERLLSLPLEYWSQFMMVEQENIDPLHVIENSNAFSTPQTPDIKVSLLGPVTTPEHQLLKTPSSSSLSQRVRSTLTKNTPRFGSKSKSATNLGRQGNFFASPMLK

COc1cc(SSc2cc(OC)cc([N+](=O)[O-])c2N)c(N)c([N+](=O)[O-])c1
EC50 [1]: > 260 µM (inactive) | IC50 [2]: 2.54 µM (active) | IC50 [3]: 20.9 µM (inactive) | IC50 [4]: > 100 µM (inactive) | IC50 [5]: > 54 µM (active)

CCOc1ccc(NC(=O)Cn2sc3nc(C)cc(C)c3c2=O)cc1
IC50 [2]: 2.96 µM (active) | IC50 [6]: 13.1 µM (active) | IC50 [3]: 24.1 µM (inactive) | IC50 (Large T antigen): > 100 µM (active) | IC50 [4]: > 100 µM (inactive) | IC50 [7]: > 50 µM (inactive) | CC50 [8]: 36.1 µM (active)

O=C(CCN1C(=O)/C(=C/c2ccccc2Cl)SC1=S)NNC(=O)c1ccccc1O
EC50 [9]: 23.2 µM (active) | EC50 (Streptococcus): 14.6 µM (active) | EC50 (Streptokinase A): 8.36 µM (active) | EC50 [10]: 7.7 µM (active) | IC50 [11]: 66.5 µM (active) | EC50 [12]: 17.7 µM (active) | EC50 [13]: 3.63 µM (active)

CN(C)S(=O)(=O)c1cc(NC(=O)CSc2nn(-c3ccc(Cl)cc3)c(=S)s2)ccc1Cl
EC50 (HEK293 [14]): > 59.7 µM (inactive) | IC50 (HEK293 [15]): 5.23 µM (active) | IC50 (HEK293 [16]): 4.69 µM (active) | EC50 (HEK293 [17]): 13.4 µM (active) | IC50 (HEK293 [18]): 11.2 µM (active) | EC50 (HEK293 [19]): > 59.7 µM (inactive)

CCOC(=O)COc1ccc(Br)cc1/C=C1\SC(N)=NC1=O
IC50 [20]: 8.41 µM (active) | IC50 [21]: 8.37 µM (active) | IC50 [22]: 7.13 µM (active) | IC50 [23]: > 100 µM (inactive)

c1ccc2c(c1)ncn2CCCCOc1ccc2c(c1)CCC2
AC50 [24]: 9.21 µM (active) | EC50 [25]: 22.8 µM (active) | AC50 [26]: 28.6 µM (active) | AC50 (INS1): 5.04 µM (active) | CC50 [27]: > 40 µM (active) | IC50 [28]: 2.1 µM (active) | IC50 [29]: 2.69 µM (active) | EC50 [30]: 24.1 µM (active)

CN(C)c1ncc2nc(-c3ccc(Cl)cc3)c(=O)n(Cc3ccc(F)cc3)c2n1
AC50 (Cytochrome P450 3A4): inconclusive

Cc1ccc(C)c(NC(=O)c2cc[n+](C)cc2)c1
IC50 [20]: 4.76 µM (active) | IC50 [21]: 2.08 µM (active)

COc1ccc(C(C)=O)cc1CC1(C)C(=O)Nc2ccc(-c3ccccc3OC)cc21 (centres undefined)
AC50 [24]: 2.02 µM (active) | EC50 (HEK293 [14]): > 59.6 µM (inactive) | AC50 [31]: 0.29 µM (active) | AC50 [26]: 0.627 µM (active) | AC50 [32]: 0.397 µM (active) | EC50 (HEK293 [19]): > 59.6 µM (inactive)

COc1cc(/C=N/n2c(S)nnc2-c2cc(C)[nH]n2)cc(OC)c1OC
IC50 [33]: 82.2 µM (active) | IC50 [2]: 2.5 µM (active) | IC50 [4]: > 100 µM (inactive)
